Data: PMC7481290, “Halogenation as a tool to tune antimicrobial activity of peptoids” (Scientific Reports, 2020)
≈ marks a conversion by molar mass, not a printed value. Non-standard residues stand in square brackets, D forms with d. Residues, ends and D or L forms follow the SMILES beside them. Gly(Nα-4-Cl-benzyl) = O=C(O)CNCc1ccc(Cl)cc1; N(4-Br-benzyl)Gly = O=C(O)CNCc1ccc(Br)cc1; N(4-F-Bzl)Gly = O=C(O)CNCc1ccc(F)cc1; NBzl(4-I)Gly = O=C(O)CNCc1ccc(I)cc1; Nphe = O=C(O)CNCc1ccccc1; Nlys = NCCCCNCC(=O)O

Key:
[1] = system: Methicillin-resistant S. aureus USA 300; assay type: cell-based, Staphylococcus aureus; conditions: USA 300, 18 h
Procedure: (§1) Bacterial growth inhibition was determined by using broth microdilution according to the Clinical Laboratory Standards Institute[43]. The antibacterial activity of peptoids was tested against S. aureus ATCC 25923, ATCC29213, and methicillin resistant S. aureus USA 300, methicillin resistant S. epidermidis ATCC 51625, a biofilm producing methicillin resistant S. epidermidis ET-024[44], P. aeruginosa Pa01 (H103), and E. coli ATCC 25922. Bacteria, grown on agar plates for 18 h at 37 °C, were diluted to ∼1 × 10^8 CFU/mL in Mueller‐Hinton Broth II (MHB II). Twofold serial dilutions of peptoids in MHB II were inoculated with bacteria to achieve a final concentration of 5 × 10^5 CFU/mL in polypropylene 96 U‐well microtiter plates (Corning 3,897; ThermoFisher Scientific, Roskilde), followed by incubation at 37 °C in ambient air for 18 h. The MIC values were determined as the lowest concentration showing no visible bacterial growth. Experiments were performed twice (in technical triplicates) on 2 different days.

S. aureus ATCC 29213 = assay type: cell-based, Staphylococcus aureus; conditions: ATCC 29213, 18 h
Procedure: as §1

S. aureus ATCC 25923 = assay type: cell-based, Staphylococcus aureus; conditions: ATCC 25923, 18 h
Procedure: as §1

[2] = system: Methicillin-resistant S. epidermidis ET-024; assay type: cell-based, Staphylococcus epidermidis; conditions: Methicillin-resistant ET-024, 18 h
Procedure: as §1

[3] = system: Methicillin-resistant S. epidermidis ATCC 51625; assay type: cell-based, Staphylococcus epidermidis; conditions: ATCC 51625, 18 h
Procedure: as §1

E. coli ATCC 25922 = assay type: cell-based, Escherichia coli; conditions: ATCC 25922, 18 h
Procedure: as §1

[4] = system: P. aeruginosa PA01 (H103); assay type: cell-based, Pseudomonas aeruginosa; conditions: H103, 18 h
Procedure: as §1

Row | SMILES | Minimal inhibitory concentration MRSA^c [1] [µg/mL] | Minimal inhibitory concentration SA^b (S. aureus ATCC 29213) [µg/mL] | Minimal inhibitory concentration SA^a (S. aureus ATCC 25923) [µg/mL] | Minimal inhibitory concentration MRSE^d [2] [µg/mL] | Minimal inhibitory concentration MRSE^e [3] [µg/mL] | Minimal inhibitory concentration EC^f (E. coli ATCC 25922) [µg/mL] | Minimal inhibitory concentration PA^g [4] [µg/mL]
1 | NCCCCNCC(=O)N(CC(=O)N(CCCCN)CC(=O)N(CC(=O)N(CCCCN)CC(=O)N(CC(=O)N(CCCCN)CC(=O)N(CC(N)=O)Cc1ccc(F)cc1)Cc1ccccc1)Cc1ccc(F)cc1)Cc1ccccc1 [Compound 15] (H-[Nlys][Nphe][Nlys][N(4-F-Bzl)Gly][Nlys][Nphe][Nlys][N(4-F-Bzl)Gly]-NH2) | > 512 | > 512 | > 512 | 128 (≈ 111 µM) | 128 (≈ 111 µM) | 512 (≈ 444 µM) | 512 (≈ 444 µM)
2 | NCCCCNCC(=O)N(CC(=O)N(CCCCN)CC(=O)N(CC(=O)N(CCCCN)CC(=O)N(CC(=O)N(CCCCN)CC(=O)N(CC(N)=O)Cc1ccc(Cl)cc1)Cc1ccccc1)Cc1ccc(Cl)cc1)Cc1ccccc1 [Compound 16] (H-[Nlys][Nphe][Nlys][Gly(Nα-4-Cl-benzyl)][Nlys][Nphe][Nlys][Gly(Nα-4-Cl-benzyl)]-NH2) | 16 (≈ 13.5 µM) | 64 (≈ 53.9 µM) | 16 (≈ 13.5 µM) | 8 (≈ 6.74 µM) | 8 (≈ 6.74 µM) | 256 (≈ 216 µM) | 512 (≈ 431 µM)
3 | NCCCCNCC(=O)N(CC(=O)N(CCCCN)CC(=O)N(CC(=O)N(CCCCN)CC(=O)N(CC(=O)N(CCCCN)CC(=O)N(CC(N)=O)Cc1ccc(Br)cc1)Cc1ccccc1)Cc1ccc(Br)cc1)Cc1ccccc1 [Compound 17] (H-[Nlys][Nphe][Nlys][N(4-Br-benzyl)Gly][Nlys][Nphe][Nlys][N(4-Br-benzyl)Gly]-NH2) | 32 (≈ 25.1 µM) | 32 (≈ 25.1 µM) | 16 (≈ 12.5 µM) | 4 (≈ 3.13 µM) | 4 (≈ 3.13 µM) | 256 (≈ 201 µM) | 512 (≈ 401 µM)
4 | NCCCCNCC(=O)N(CC(=O)N(CCCCN)CC(=O)N(CC(=O)N(CCCCN)CC(=O)N(CC(=O)N(CCCCN)CC(=O)N(CC(N)=O)Cc1ccc(I)cc1)Cc1ccccc1)Cc1ccc(I)cc1)Cc1ccccc1 [Compound 18] (H-[Nlys][Nphe][Nlys][NBzl(4-I)Gly][Nlys][Nphe][Nlys][NBzl(4-I)Gly]-NH2) | 16 (≈ 11.7 µM) | 32 (≈ 23.4 µM) | 32 (≈ 23.4 µM) | 8 (≈ 5.84 µM) | 4 (≈ 2.92 µM) | 256 (≈ 187 µM) | > 512
5 | NCCCCNCC(=O)N(CC(=O)N(CCCCN)CC(=O)N(CC(=O)N(CCCCN)CC(=O)N(CC(=O)N(CCCCN)CC(=O)N(CC(=O)N(CCCCN)CC(=O)N(CC(=O)N(CCCCN)CC(=O)N(CC(N)=O)Cc1ccc(F)cc1)Cc1ccc(F)cc1)Cc1ccc(F)cc1)Cc1ccc(F)cc1)Cc1ccc(F)cc1)Cc1ccc(F)cc1 [Compound 29] (H-[Nlys][N(4-F-Bzl)Gly][Nlys][N(4-F-Bzl)Gly][Nlys][N(4-F-Bzl)Gly][Nlys][N(4-F-Bzl)Gly][Nlys][N(4-F-Bzl)Gly][Nlys][N(4-F-Bzl)Gly]-NH2) | 16 (≈ 9 µM) | 32 (≈ 18 µM) | 32 (≈ 18 µM) | 4 to 8 | 4 (≈ 2.25 µM) | 256 (≈ 144 µM) | 64 (≈ 36 µM)
6 | NCCCCNCC(=O)N(CC(=O)N(CCCCN)CC(=O)N(CC(=O)N(CCCCN)CC(=O)N(CC(=O)N(CCCCN)CC(=O)N(CC(=O)N(CCCCN)CC(=O)N(CC(=O)N(CCCCN)CC(=O)N(CC(N)=O)Cc1ccc(Cl)cc1)Cc1ccc(Cl)cc1)Cc1ccc(Cl)cc1)Cc1ccc(Cl)cc1)Cc1ccc(Cl)cc1)Cc1ccc(Cl)cc1 [Compound 30] (H-[Nlys][Gly(Nα-4-Cl-benzyl)][Nlys][Gly(Nα-4-Cl-benzyl)][Nlys][Gly(Nα-4-Cl-benzyl)][Nlys][Gly(Nα-4-Cl-benzyl)][Nlys][Gly(Nα-4-Cl-benzyl)][Nlys][Gly(Nα-4-Cl-benzyl)]-NH2) | 2 (≈ 1.07 µM) | 2 (≈ 1.07 µM) | 2 (≈ 1.07 µM) | 2 (≈ 1.07 µM) | 1 (≈ 0.533 µM) | 64 (≈ 34.1 µM) | > 512
7 | NCCCCNCC(=O)N(CC(=O)N(CCCCN)CC(=O)N(CC(=O)N(CCCCN)CC(=O)N(CC(=O)N(CCCCN)CC(=O)N(CC(=O)N(CCCCN)CC(=O)N(CC(=O)N(CCCCN)CC(=O)N(CC(N)=O)Cc1ccc(Br)cc1)Cc1ccc(Br)cc1)Cc1ccc(Br)cc1)Cc1ccc(Br)cc1)Cc1ccc(Br)cc1)Cc1ccc(Br)cc1 [Compound 31] (H-[Nlys][N(4-Br-benzyl)Gly][Nlys][N(4-Br-benzyl)Gly][Nlys][N(4-Br-benzyl)Gly][Nlys][N(4-Br-benzyl)Gly][Nlys][N(4-Br-benzyl)Gly][Nlys][N(4-Br-benzyl)Gly]-NH2) | 2 (≈ 0.933 µM) | 8 (≈ 3.73 µM) | 4 (≈ 1.87 µM) | 4 (≈ 1.87 µM) | 4 (≈ 1.87 µM) | 64 (≈ 29.9 µM) | 256 (≈ 119 µM)
8 | NCCCCNCC(=O)N(CC(=O)N(CCCCN)CC(=O)N(CC(=O)N(CCCCN)CC(=O)N(CC(=O)N(CCCCN)CC(=O)N(CC(=O)N(CCCCN)CC(=O)N(CC(=O)N(CCCCN)CC(=O)N(CC(N)=O)Cc1ccc(F)cc1)Cc1ccccc1)Cc1ccc(F)cc1)Cc1ccccc1)Cc1ccc(F)cc1)Cc1ccccc1 [Compound 33] (H-[Nlys][Nphe][Nlys][N(4-F-Bzl)Gly][Nlys][Nphe][Nlys][N(4-F-Bzl)Gly][Nlys][Nphe][Nlys][N(4-F-Bzl)Gly]-NH2) | 128 (≈ 74.3 µM) | 256 (≈ 149 µM) | 256 (≈ 149 µM) | 16 (≈ 9.29 µM) | 4 (≈ 2.32 µM) | 256 (≈ 149 µM) | 256 (≈ 149 µM)
9 | NCCCCNCC(=O)N(CC(=O)N(CCCCN)CC(=O)N(CC(=O)N(CCCCN)CC(=O)N(CC(=O)N(CCCCN)CC(=O)N(CC(=O)N(CCCCN)CC(=O)N(CC(=O)N(CCCCN)CC(=O)N(CC(N)=O)Cc1ccc(Cl)cc1)Cc1ccccc1)Cc1ccc(Cl)cc1)Cc1ccccc1)Cc1ccc(Cl)cc1)Cc1ccccc1 [Compound 34] (H-[Nlys][Nphe][Nlys][Gly(Nα-4-Cl-benzyl)][Nlys][Nphe][Nlys][Gly(Nα-4-Cl-benzyl)][Nlys][Nphe][Nlys][Gly(Nα-4-Cl-benzyl)]-NH2) | 8 (≈ 4.51 µM) | 8 (≈ 4.51 µM) | 16 (≈ 9.03 µM) | 4 (≈ 2.26 µM) | 1 (≈ 0.564 µM) | 256 (≈ 144 µM) | > 512
10 | NCCCCNCC(=O)N(CC(=O)N(CCCCN)CC(=O)N(CC(=O)N(CCCCN)CC(=O)N(CC(=O)N(CCCCN)CC(=O)N(CC(=O)N(CCCCN)CC(=O)N(CC(=O)N(CCCCN)CC(=O)N(CC(N)=O)Cc1ccc(Br)cc1)Cc1ccccc1)Cc1ccc(Br)cc1)Cc1ccccc1)Cc1ccc(Br)cc1)Cc1ccccc1 [Compound 35] (H-[Nlys][Nphe][Nlys][N(4-Br-benzyl)Gly][Nlys][Nphe][Nlys][N(4-Br-benzyl)Gly][Nlys][Nphe][Nlys][N(4-Br-benzyl)Gly]-NH2) | 8 (≈ 4.2 µM) | 8 (≈ 4.2 µM) | 8 (≈ 4.2 µM) | 8 (≈ 4.2 µM) | 1 (≈ 0.525 µM) | 256 (≈ 134 µM) | > 512
11 | NCCCCNCC(=O)N(CC(=O)N(CCCCN)CC(=O)N(CC(=O)N(CCCCN)CC(=O)N(CC(=O)N(CCCCN)CC(=O)N(CC(=O)N(CCCCN)CC(=O)N(CC(=O)N(CCCCN)CC(=O)N(CC(N)=O)Cc1ccc(I)cc1)Cc1ccccc1)Cc1ccc(I)cc1)Cc1ccccc1)Cc1ccc(I)cc1)Cc1ccccc1 [Compound 36] (H-[Nlys][Nphe][Nlys][NBzl(4-I)Gly][Nlys][Nphe][Nlys][NBzl(4-I)Gly][Nlys][Nphe][Nlys][NBzl(4-I)Gly]-NH2) | 4 (≈ 1.95 µM) | 16 (≈ 7.82 µM) | 8 (≈ 3.91 µM) | 4 (≈ 1.95 µM) | 1 (≈ 0.489 µM) | 256 (≈ 125 µM) | > 512
